Paper PMC7248782, “Synergistic Anti Leukemia Effect of a Novel Hsp90 and a Pan Cyclin Dependent Kinase Inhibitors” (Molecules, 2020)

Target: T1, Hsp90α (Homo sapiens, UniProt P07900)
T1 construct: gene HSP90AA1; recombinant human Hsp90α (SPP-776)
Experiment: SPR (Biacore […], immobilized Hsp90α)
Format: binding

NS(=O)(=O)c1ccc(CCn2c(=S)[nH]c3ccccc3c2=O)cc1 [compound 1, 4-(2-(4-Oxo-2-thioxo-1,4-dihydroquinazolin-3(2H)-yl)ethyl)benzene sulfonamide]
Kd: 51 ± 2.9 nM
